Test results as given in ChEMBL document CHEMBL1150977, “A quantitative analysis of kinase inhibitor selectivity” (Nat Biotechnol, 2008).

How the values were obtained:
[1] = target: Protein-tyrosine kinase 2-beta (Homo sapiens, UniProt Q14289)
[2] = target: Activin receptor type-1-like (Homo sapiens, UniProt P37023)
[3] = target: Receptor-type tyrosine-protein kinase FLT3 (Homo sapiens, UniProt P36888, N841I)
[4] = target: T1, Tyrosine-protein kinase receptor TYRO3 (Homo sapiens, UniProt Q06418)
T1 sequence (Q06418 whole entry): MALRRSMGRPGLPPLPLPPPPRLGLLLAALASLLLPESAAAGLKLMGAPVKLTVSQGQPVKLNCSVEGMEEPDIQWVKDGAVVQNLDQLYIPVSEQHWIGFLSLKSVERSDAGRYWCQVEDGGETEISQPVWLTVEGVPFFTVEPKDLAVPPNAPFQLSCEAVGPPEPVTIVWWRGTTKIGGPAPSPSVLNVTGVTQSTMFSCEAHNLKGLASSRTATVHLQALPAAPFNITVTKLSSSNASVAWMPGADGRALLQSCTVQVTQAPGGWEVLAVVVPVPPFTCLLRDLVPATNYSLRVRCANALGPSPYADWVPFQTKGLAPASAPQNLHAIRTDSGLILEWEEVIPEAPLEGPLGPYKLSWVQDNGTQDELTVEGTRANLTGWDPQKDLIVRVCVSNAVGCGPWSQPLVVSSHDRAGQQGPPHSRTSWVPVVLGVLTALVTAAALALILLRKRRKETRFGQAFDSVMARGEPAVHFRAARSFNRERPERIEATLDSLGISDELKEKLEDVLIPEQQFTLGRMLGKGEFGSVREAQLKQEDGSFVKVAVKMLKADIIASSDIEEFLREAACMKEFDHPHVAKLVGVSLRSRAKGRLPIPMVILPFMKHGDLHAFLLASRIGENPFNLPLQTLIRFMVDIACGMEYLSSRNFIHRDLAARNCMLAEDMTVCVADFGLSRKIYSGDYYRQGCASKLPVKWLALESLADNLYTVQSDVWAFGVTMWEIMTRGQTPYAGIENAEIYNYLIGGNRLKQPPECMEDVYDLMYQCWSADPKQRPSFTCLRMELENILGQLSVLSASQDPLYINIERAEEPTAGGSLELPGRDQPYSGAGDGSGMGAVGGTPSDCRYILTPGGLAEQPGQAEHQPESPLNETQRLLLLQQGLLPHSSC

[5] = target: RAC-alpha serine/threonine-protein kinase (Homo sapiens, UniProt P31749)
RAC-alpha serine/threonine-protein kinase, sequence (P31749 whole entry, canonical isoform): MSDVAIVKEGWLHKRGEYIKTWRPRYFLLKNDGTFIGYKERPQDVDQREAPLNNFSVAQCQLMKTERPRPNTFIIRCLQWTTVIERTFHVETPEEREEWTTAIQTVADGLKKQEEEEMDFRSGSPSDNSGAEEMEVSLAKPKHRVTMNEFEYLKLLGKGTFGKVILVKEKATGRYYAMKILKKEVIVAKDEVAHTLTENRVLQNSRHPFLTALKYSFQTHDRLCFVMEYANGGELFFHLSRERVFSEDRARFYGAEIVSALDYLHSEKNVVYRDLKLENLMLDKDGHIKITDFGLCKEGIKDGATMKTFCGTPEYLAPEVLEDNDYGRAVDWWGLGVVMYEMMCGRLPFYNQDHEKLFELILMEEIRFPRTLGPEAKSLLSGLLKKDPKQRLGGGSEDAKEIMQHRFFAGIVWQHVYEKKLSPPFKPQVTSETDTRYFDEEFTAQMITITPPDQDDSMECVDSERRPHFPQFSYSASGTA

[6] = target: Phosphorylase b kinase gamma catalytic chain, skeletal muscle/heart isoform (Homo sapiens, UniProt Q16816)
Phosphorylase b kinase gamma catalytic chain, skeletal muscle/heart isoform, sequence (Q16816 whole entry, canonical isoform): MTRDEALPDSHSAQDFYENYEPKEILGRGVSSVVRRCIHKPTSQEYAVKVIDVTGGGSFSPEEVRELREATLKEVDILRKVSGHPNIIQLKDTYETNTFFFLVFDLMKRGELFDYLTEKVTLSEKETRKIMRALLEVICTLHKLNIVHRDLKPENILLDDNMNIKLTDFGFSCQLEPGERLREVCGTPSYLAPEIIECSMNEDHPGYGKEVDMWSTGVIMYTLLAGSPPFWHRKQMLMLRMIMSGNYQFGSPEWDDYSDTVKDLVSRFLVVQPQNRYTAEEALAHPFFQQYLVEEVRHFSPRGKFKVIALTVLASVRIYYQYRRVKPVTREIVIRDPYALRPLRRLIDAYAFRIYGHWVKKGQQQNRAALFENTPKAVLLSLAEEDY

[7] = target: Serine/threonine-protein kinase PAK 5 (Homo sapiens, UniProt Q9P286)
Serine/threonine-protein kinase PAK 5, sequence (Q9P286 whole entry): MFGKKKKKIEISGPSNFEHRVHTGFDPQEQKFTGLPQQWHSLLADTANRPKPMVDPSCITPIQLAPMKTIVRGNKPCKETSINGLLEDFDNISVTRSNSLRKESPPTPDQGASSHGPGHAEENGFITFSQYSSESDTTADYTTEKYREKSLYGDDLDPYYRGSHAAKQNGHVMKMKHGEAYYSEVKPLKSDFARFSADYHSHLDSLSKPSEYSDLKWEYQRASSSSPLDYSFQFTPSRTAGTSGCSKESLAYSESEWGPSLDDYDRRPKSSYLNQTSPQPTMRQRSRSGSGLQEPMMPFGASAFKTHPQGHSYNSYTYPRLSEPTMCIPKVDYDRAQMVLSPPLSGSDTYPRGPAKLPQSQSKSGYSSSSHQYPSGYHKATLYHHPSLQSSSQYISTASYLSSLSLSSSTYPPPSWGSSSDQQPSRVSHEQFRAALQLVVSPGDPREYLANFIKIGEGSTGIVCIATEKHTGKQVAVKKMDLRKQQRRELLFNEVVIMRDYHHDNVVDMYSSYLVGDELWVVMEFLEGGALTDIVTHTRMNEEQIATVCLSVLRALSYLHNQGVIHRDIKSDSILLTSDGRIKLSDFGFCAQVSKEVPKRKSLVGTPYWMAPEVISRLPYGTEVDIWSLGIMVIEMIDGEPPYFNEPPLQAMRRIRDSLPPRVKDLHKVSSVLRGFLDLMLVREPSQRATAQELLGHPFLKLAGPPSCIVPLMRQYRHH

[8] = target: 5'-AMP-activated protein kinase catalytic subunit alpha-1 (Homo sapiens, UniProt Q13131)
5'-AMP-activated protein kinase catalytic subunit alpha-1, sequence (Q13131 whole entry): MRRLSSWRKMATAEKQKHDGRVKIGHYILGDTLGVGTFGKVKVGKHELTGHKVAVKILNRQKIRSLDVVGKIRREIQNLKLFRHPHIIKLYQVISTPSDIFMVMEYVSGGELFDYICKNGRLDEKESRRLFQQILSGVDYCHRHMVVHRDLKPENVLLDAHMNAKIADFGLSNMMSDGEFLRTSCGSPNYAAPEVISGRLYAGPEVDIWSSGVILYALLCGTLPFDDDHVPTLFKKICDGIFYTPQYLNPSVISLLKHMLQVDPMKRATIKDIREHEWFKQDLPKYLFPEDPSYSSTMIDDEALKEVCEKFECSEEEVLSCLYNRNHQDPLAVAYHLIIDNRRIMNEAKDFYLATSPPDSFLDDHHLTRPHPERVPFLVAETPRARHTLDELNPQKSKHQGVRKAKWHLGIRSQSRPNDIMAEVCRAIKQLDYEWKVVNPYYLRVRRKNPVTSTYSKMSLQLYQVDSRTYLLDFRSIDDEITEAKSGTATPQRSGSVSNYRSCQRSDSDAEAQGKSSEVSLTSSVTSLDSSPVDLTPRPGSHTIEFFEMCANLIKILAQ

[9] = target: Tyrosine-protein kinase BTK (Homo sapiens, UniProt Q06187)
Tyrosine-protein kinase BTK, sequence (Q06187 whole entry): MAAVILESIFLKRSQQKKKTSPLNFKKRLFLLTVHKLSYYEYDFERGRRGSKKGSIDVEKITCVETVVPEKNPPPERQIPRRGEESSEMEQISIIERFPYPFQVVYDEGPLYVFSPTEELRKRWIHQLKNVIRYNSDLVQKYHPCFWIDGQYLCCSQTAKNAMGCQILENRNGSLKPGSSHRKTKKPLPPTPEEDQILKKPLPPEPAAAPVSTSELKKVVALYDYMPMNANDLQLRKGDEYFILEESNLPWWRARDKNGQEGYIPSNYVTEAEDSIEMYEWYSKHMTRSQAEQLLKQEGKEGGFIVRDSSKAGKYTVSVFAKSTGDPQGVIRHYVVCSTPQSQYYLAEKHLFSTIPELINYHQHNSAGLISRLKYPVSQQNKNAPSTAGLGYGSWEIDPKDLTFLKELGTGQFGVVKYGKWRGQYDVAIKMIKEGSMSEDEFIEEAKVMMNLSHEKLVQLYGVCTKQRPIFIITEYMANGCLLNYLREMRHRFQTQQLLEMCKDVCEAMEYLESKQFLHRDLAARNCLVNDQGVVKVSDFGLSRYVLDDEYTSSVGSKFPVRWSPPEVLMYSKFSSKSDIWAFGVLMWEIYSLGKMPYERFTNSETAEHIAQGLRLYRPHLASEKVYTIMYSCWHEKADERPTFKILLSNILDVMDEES

[10] = target: T2, Mitogen-activated protein kinase 15 (Homo sapiens, UniProt Q8TD08)
T2 sequence (Q8TD08 whole entry): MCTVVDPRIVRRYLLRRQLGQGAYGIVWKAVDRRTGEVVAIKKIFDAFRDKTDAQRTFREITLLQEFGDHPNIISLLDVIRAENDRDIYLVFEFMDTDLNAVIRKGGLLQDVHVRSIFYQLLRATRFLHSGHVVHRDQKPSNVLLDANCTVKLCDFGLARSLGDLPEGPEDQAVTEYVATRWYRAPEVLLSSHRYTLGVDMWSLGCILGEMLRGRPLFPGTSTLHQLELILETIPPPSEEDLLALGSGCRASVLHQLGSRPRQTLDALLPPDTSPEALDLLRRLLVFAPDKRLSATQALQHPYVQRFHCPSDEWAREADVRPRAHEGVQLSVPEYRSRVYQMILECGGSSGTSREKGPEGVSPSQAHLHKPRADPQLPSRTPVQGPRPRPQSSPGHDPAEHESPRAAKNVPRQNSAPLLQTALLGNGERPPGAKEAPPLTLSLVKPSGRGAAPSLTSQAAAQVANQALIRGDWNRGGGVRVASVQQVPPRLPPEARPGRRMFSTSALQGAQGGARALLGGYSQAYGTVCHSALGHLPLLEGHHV

[11] = target: Angiopoietin-1 receptor (Homo sapiens, UniProt Q02763)
[12] = target: Calcium/calmodulin-dependent protein kinase type II subunit gamma (Homo sapiens, UniProt Q13555)
Calcium/calmodulin-dependent protein kinase type II subunit gamma, sequence (Q13555 whole entry): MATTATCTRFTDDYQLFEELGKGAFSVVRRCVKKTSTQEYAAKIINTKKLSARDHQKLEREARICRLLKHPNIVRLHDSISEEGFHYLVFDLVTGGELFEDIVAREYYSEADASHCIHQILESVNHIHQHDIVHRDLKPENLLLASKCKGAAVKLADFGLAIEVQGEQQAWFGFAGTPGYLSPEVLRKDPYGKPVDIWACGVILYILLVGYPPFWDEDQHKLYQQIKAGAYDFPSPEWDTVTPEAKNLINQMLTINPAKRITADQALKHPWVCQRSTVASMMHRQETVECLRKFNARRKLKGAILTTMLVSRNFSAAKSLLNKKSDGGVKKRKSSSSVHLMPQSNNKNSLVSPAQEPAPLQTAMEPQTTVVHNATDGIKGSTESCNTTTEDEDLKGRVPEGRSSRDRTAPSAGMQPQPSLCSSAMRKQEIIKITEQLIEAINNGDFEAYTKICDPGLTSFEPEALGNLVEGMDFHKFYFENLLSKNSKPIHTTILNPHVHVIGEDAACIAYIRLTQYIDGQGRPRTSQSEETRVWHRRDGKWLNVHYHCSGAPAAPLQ

[13] = target: Wee1-like protein kinase (Homo sapiens, UniProt P30291)
[14] = target: Protein kinase C theta type (Homo sapiens, UniProt Q04759)
[15] = target: Casein kinase II subunit alpha' (Homo sapiens, UniProt P19784)
Casein kinase II subunit alpha', sequence (P19784 whole entry, the tested form may be a part): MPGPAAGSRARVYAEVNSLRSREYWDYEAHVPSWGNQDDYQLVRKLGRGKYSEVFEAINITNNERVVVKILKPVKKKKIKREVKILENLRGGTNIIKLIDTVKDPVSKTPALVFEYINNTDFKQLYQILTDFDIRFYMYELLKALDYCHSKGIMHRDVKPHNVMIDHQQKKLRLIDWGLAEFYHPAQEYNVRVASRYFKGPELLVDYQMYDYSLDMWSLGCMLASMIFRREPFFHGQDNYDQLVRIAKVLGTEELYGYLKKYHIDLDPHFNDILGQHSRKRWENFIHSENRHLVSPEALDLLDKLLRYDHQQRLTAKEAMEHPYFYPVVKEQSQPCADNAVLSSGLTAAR

[16] = target: Epithelial discoidin domain-containing receptor 1 (Homo sapiens, UniProt Q08345)
[17] = target: Calcium/calmodulin-dependent protein kinase type 1 (Homo sapiens, UniProt Q14012)

Protein-tyrosine kinase 2-beta, sequence (Q14289 whole entry): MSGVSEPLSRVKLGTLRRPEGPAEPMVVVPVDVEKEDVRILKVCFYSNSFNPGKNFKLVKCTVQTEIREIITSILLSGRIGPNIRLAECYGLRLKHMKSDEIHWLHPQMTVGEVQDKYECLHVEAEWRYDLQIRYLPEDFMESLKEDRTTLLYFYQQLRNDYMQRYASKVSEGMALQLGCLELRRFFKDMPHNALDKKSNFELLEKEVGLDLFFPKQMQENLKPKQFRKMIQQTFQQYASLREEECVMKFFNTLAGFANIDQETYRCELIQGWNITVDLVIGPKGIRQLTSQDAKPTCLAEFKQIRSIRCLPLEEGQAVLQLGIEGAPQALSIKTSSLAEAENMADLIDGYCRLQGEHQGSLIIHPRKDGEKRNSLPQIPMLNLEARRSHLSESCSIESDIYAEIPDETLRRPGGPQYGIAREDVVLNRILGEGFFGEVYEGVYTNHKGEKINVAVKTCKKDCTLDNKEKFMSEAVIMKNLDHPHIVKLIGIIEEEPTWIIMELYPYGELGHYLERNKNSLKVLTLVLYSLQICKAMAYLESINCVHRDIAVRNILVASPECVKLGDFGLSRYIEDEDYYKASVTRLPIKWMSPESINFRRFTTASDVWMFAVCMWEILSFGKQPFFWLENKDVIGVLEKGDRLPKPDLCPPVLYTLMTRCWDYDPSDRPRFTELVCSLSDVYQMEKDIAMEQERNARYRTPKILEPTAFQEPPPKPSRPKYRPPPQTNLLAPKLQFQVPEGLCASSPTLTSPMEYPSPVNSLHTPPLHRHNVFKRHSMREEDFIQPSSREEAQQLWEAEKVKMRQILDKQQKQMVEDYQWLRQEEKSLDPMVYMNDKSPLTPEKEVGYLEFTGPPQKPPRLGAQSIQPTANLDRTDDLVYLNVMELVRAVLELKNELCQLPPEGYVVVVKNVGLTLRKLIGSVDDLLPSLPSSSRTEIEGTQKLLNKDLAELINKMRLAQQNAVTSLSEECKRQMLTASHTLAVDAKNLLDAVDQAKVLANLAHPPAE

Structure (SMILES) | Kd [1] [µM] | Kd [2] [µM] | Kd [3] [µM] | Kd [4] [µM] | Kd [5] [µM] | Kd [6] [µM] | Kd [7] [µM] | Kd [8] [µM] | Kd [9] [µM] | Kd [10] [µM] | Kd [11] [µM] | Kd [12] [µM] | Kd [13] [µM] | Kd [14] [µM] | Kd [15] [µM] | Kd [16] [µM] | Kd [17] [µM]
COCC(=O)NC/C=C/c1ccc2ncnc(Nc3ccc(Oc4ccc(C)nc4)c(C)c3)c2c1 [CP-724714] | > 10 | > 10 | > 10 | > 10 | > 10 | > 10 | > 10 | > 10 | > 10 | > 10 | > 10 | > 10 | > 10 | > 10 | > 10 | > 10 | –
Nc1nc(Nc2ccc(S(N)(=O)=O)cc2)nn1C(=O)c1c(F)cccc1F [JNJ-7706621] | > 10 | – | – | > 10 | > 10 | > 10 | – | – | – | – | – | > 10 | > 10 | – | – | > 10 | > 10
CCOc1cc2ncc(C#N)c(Nc3ccc(F)c(Cl)c3)c2cc1NC(=O)/C=C/CN(C)C [PELITINIB] | > 10 | > 10 | 2 | – | > 10 | – | > 10 | > 10 | 4.9 | > 10 | > 10 | > 10 | – | > 10 | > 10 | > 10 | > 10
Oc1ccc(-c2nc(-c3ccncc3)c(-c3ccc(F)cc3)[nH]2)cc1 [SB-202190] | > 10 | > 10 | > 10 | > 10 | > 10 | > 10 | > 10 | > 10 | > 10 | > 10 | > 10 | > 10 | > 10 | > 10 | > 10 | – | > 10
NC(=O)c1ccc(-c2nc(-c3ccc4c(c3)OCO4)c(-c3ccccn3)[nH]2)cc1 [SB-431542] | > 10 | > 10 | – | > 10 | > 10 | > 10 | > 10 | > 10 | > 10 | > 10 | > 10 | > 10 | > 10 | > 10 | > 10 | > 10 | > 10
